The text below walks through data of PMC12369477 (Journal of Experimental Botany, 2025).

Test [1] has as its target T1, AtGH3.6 (Arabidopsis thaliana, UniProt Q9LSQ4).
T1 construct: gene GH3.6
T1 sequence (Q9LSQ4 1-612): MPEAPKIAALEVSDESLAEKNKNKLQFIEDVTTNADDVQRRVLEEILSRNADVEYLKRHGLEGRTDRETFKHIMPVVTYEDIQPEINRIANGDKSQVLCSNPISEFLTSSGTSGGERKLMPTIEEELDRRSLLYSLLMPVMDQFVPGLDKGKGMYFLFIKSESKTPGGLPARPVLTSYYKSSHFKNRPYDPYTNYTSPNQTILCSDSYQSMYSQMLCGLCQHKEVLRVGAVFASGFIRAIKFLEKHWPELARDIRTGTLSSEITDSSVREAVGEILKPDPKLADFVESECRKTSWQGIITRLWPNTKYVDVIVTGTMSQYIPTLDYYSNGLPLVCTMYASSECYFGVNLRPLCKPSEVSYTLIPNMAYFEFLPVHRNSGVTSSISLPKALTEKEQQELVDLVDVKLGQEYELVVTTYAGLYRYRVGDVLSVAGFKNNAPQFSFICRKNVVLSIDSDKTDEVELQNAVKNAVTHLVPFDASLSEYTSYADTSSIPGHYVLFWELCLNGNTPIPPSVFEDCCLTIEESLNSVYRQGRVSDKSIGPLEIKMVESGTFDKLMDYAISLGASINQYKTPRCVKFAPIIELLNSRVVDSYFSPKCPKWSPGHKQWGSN
The experiment in a line: MST. Format: binding.

The target of test [2] is T2, UGT74D1 (Arabidopsis thaliana, UniProt Q9SKC5).
T2 construct: recombinant AtUGT74D1 in E. coli lysate
T2 sequence (Q9SKC5 1-456): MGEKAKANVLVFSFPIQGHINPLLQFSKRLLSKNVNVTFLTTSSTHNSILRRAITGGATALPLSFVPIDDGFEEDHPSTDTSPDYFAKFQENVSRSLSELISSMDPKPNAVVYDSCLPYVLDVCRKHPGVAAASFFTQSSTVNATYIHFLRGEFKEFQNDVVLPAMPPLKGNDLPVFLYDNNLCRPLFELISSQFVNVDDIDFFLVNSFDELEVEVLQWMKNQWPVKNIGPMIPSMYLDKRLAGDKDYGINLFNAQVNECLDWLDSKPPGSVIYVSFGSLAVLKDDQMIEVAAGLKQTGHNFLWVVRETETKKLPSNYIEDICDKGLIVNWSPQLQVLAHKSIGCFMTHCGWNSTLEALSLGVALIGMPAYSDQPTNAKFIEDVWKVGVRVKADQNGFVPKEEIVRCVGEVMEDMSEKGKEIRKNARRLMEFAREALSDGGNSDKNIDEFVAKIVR
The experiment in a line: bacterial lysate glucosylation assay, HPLC-MS/MS. Format: cell-based.

Test [3] concerns the target T3, UGT84B1 (Arabidopsis thaliana, UniProt O22182).
T3 construct: recombinant AtUGT84B1 in E. coli lysate
T3 sequence (O22182 1-456): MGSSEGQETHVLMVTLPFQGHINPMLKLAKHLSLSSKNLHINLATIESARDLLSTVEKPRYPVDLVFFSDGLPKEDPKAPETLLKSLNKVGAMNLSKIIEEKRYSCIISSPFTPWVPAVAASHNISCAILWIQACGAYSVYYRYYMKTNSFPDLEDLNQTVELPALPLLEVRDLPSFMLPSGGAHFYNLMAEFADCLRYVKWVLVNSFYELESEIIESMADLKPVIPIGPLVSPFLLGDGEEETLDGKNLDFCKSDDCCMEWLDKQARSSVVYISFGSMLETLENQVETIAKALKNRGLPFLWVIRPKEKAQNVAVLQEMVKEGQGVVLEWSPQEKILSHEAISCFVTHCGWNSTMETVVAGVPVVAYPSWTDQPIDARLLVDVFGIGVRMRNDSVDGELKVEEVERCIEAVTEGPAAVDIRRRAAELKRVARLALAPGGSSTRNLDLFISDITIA
The experiment in a line: bacterial lysate glucosylation assay, HPLC-MS/MS. Format: cell-based.

Test [4] has as its target T1, AtGH3.6. The experiment in a line: crystal structure with AMP and Asp; MST. It counts as binding.
The target in test [5] is T1, AtGH3.6. The test can be described thus: MST; also conjugated by AtGH3.[…] in bacterial lysate assay. Format: binding.

With `O=C(O)Cc1c[nH]c2ccccc12` [IAA, indole-3-acetic acid], the equilibrium dissociation constant (Kd) in test [1] (read-out: Kd) was about 60 µM. The “bacterial lysate glucosylation assay, HPLC-MS/MS” value was “Both UGT84B1 and UGT74D1 recombinant proteins showed the capability to produce IAA-glc and PAA-glc” in test [2]; “Both UGT84B1 and UGT74D1 recombinant proteins showed the capability to produce IAA-glc and PAA-glc” in test [3].

In test [4], `N[C@@H](CC(=O)O)C(=O)O` [Asp, aspartate] gave a Kd of 680 µM. For the compound `N[C@@H](CCC(=O)O)C(=O)O` [Glu], the Kd in test [1] amounted to 720 µM. `O=C(O)Cc1ccccc1` [PAA, phenylacetic acid] had a Kd in test [5] of about 60 µM.

Broadly, the Kd is the free concentration of one partner at which half of the binding sites on the other are occupied at equilibrium, for simple one-to-one binding.
